# Laboratory results: patent publication US11999987B2, “Bacterial cocultures expressing a bacteriocin system” (Lallemand Hungary Liquidity Management LLC, priority 2020, dated 2024)
# How the values were obtained:
# [1] = test system: Lb. paracasei E3.1 harboring the empty vector; assay: Growth of Lb. paracasei E3.1 (empty vector) in MRS with nisin, OD600; assay type: cell-based, Lactobacillus paracasei; details: MRS supplemented with 500 ppm of nisin; empty vector strain; FIG. 1
# Description: (§1) Resulting Lb. paracasei strains (±the nisin resistance construct) were grown in MRS (no nisin) and MRS supplemented with 500 ppm of nisin. The OD600 was monitored. When nisin was absent from the media both strains grew identically, indicating no deleterious effect of NisIEFG expression (FIG. 1).
# [2] = test system: Lb. paracasei E3.1 expressing pDW2-P5-nisIEFG; assay: Growth of Lb. paracasei E3.1 expressing the nisin autoimmunity construct in MRS with nisin, OD600; assay type: cell-based, Lactobacillus paracasei; details: MRS supplemented with 500 ppm of nisin; strain expressing pDW2-P5-nisIEFG; FIG. 1
# Description: as §1
substance,measurement,setting,value
nisin,growth (OD600) in the presence of nisin,[1],completely inhibited
same,growth rate (OD600) in the presence of nisin,[2],only a minimal decrease in growth rate
